Source: patent US8476255B2, “Histone deacetylase inhibitors” (Orchid Chemicals & Pharmaceuticals Limited, priority 2007, dated 2013)

Key:
[1] = system: NCIH460 (lung) cells; assay: Anti-cancer screen (MTT), NCIH460; assay type: cell-based; details: Homo sapiens, NCI-H460, NCIH460, 48 hours, MTT; for GI50: read-out: Cell growth inhibition NCIH460 (Lung) GI50; for LC50: read-out: Cell growth inhibition NCIH460 (Lung) LC50; for IC (TGI): read-out: Cell growth inhibition NCIH460 (Lung) TGI
In short: (§1)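 5×10^4 cells/mL, DMEM + 10% FBS, 24 h attach, 37 °C/5% CO2. Cpds 0.01–100 μM (5 conc., triplicate), 48 h. MTT 3 h → DMSO → A570; T0 plate read at dosing.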

[2] = system: HDAC (Mouse Liver Extract); assay: HDAC inhibition assay using Boc-Lys(Ac)-AMC substrate; assay type: biochemical; details: mouse liver enzyme
In short: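 Released AMC measured at 360 nm excitation, 460 nm emission after 15-30 min trypsin development at 37° C. Preceding deacetylation: mouse liver extract with acetylated-lysine AMC substrate, 30 min at 37° C after 5-min preincubation; blanks were buffer alone and substrate alone.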

[3] = system: U251 (glioma) cells; assay: Anti-cancer screen (MTT), U251; assay type: cell-based; details: Homo sapiens, U-251, U251, 48 hours, MTT; for GI50: read-out: Cell growth inhibition U251 (Glioma) GI50; for LC50 (concentration giving 50% net cell kill relative to the time-zero cell count): read-out: Cell growth inhibition U251 (Glioma) LC50; for IC (TGI): read-out: Cell growth inhibition U251 (Glioma) TGI
In short: as §1

[4] = system: HCT 116 (colon) cells; assay: Anti-cancer screen (MTT), HCT 116; assay type: cell-based; details: Homo sapiens, HCT-116, HCT116, 48 hours, MTT; for GI50: read-out: Cell growth inhibition HCT116 (Colon) GI50; for CC50: read-out: Cell growth inhibition HCT116 (Colon) LC50; for IC (TGI): read-out: Cell growth inhibition HCT116 (Colon) TGI
In short: as §1

[5] = system: p21; assay: p21 induction, sandwich ELISA in HCT116 lysate; assay type: cell-based; details: HCT116, 18 hours
Experimental: (§2) Acetylated histone (H3), acetylated Tubulin and p21 levels were detected in cell lysate by sandwich ELISA method (Cell Signaling Technology, USA, Cat No: 7232, 7204 & 7167 respectively) by following manufacturer's instructions. Briefly, colon cancer cells (HCT116. 10,000/well) were incubated with test compound (1 and 10 μM) or medium (control) for 4 hours at 37° C. in CO2 incubator. The incubation lasted 18 hours for p21 induction. After incubation, cell lysates were prepared in cell lysis buffer by sonication on ice. The lysates were collected after centrifugation and subjected to ELISA test procedure. 100 μL of each diluted cell lysate in dilution buffer (1:1) was added to appropriate capture antibody coated microwells and incubated overnight at 4° C. After washing, 100 μL of detection antibody was added for 1 hour at 37° C. After second washing, 100 μL of HRP-linked secondary antibody was added for 30 min at 37° C. Finally, after appropriate washing, 100 μL of TMB substrate was added for 10 min at 37° C. followed by 100 μL of stop solution. The absorbance of individual wells was read using a spectrophotometer at 450 nm (A450).

[6] = system: Acetylated histone (H3); assay: Histone (H3) acetylation, sandwich ELISA in HCT116 lysate; assay type: cell-based; details: HCT116, 4 hours
Experimental: as §2

[7] = system: acetylated Tubulin; assay: Tubulin acetylation, sandwich ELISA in HCT116 lysate; assay type: cell-based; details: HCT116, 4 hours
Experimental: as §2

[8] = system: NCIH460, HCT116 and U251 cells; assay: Anti-cancer screen, mean GI50 over cell lines; assay type: cell-based; details: mean over cell lines; read-out: Cell growth inhibition Mean GI50
In short: as §1

[9] = target: recombinant HDAC1 enzyme (Homo sapiens (Human), UniProt Q13547); assay: HDAC1 inhibitory activity (isoform selectivity); assay type: biochemical; details: read-out: HDAC1 inhibition (IC50)
Chain of recombinant HDAC1 enzyme (Q13547 whole entry, canonical isoform): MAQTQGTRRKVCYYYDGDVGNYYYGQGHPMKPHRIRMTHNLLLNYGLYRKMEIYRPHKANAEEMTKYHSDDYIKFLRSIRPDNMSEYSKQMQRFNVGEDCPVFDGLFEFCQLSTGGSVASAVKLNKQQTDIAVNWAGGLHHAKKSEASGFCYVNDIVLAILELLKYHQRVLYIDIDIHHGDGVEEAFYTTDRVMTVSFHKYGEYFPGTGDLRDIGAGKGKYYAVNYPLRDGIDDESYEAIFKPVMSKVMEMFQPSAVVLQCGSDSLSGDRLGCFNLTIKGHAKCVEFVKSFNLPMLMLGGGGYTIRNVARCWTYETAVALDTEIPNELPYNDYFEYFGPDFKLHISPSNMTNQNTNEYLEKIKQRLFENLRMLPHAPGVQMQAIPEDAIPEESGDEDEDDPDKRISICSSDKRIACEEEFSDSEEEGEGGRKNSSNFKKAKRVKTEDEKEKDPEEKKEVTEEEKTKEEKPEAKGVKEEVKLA
Experimental: The assay was carried out, as previously described using recombinant HDAC1 enzyme (BIOMOL, USA) and following manufacturer's instructions.

| SMILES | GI50 [1] [µM] | LC50 [1] [µM] | IC (TGI) [1] [µM] | HDAC inhibition % (1 μM) [2] [%] | HDAC inhibition % (10 μM) [2] [%] | IC50 [2] [µM] | GI50 [3] [µM] | LC50 (concentration giving 50% net cell kill relative to the time-zero cell count) [3] [µM] | IC (TGI) [3] [µM] | GI50 [4] [µM] | CC50 [4] [µM] | IC (TGI) [4] [µM] | P21 induction (Fold increase) ([5]; 1 μM) | P21 induction (Fold increase) ([5]; 10 μM) | H3 acetylation (Fold increase) ([6]; 1 μM) | H3 acetylation (Fold increase) ([6]; 10 μM) | Tubulin acetylation (Fold increase) ([7]; 1 μM) | Tubulin acetylation (Fold increase) ([7]; 10 μM) | GI50 [8] [µM] | IC50 [9] [µM] |
| --- | --- | --- | --- | --- | --- | --- | --- | --- | --- | --- | --- | --- | --- | --- | --- | --- | --- | --- | --- | --- |
| COc1ccc(/C=C(/C(=O)NCc2ccc(C(=O)Nc3ccccc3N)cc2)c2ccccc2F)cc1OC [Compound 28, N-(2-Aminophenyl)-4-((3-(3,4-dimethoxyphenyl)-2-(2-fluorophenyl)acrylamido)methyl)benzamide] | 1 | > 100 | > 100 | 41.3 | 65.6 | 9.5 | 5.5 | > 100 | > 100 | 0.1 | > 100 | > 100 | 1.5 | 2.5 | 1.1 | 5.6 | 1.9 | 6.2 | 2.2 | 0.036 |
| COc1ccc(/C=C(/C(=O)NCc2ccc(C(=O)Nc3ccccc3N)cc2)c2ccc(C)cc2)cc1OC [Compound 29, N-(2-Aminophenyl)-4-((3-(3,4-dimethoxyphenyl)-2-(4-methylphenyl)acrylamido)methyl)benzamide] | 3.1 | > 100 | > 100 | 34.2 | 52.8 | 34 | 11 | > 100 | 45 | 0.3 | > 100 | 40 |  |  |  |  |  |  | 4.8 | 0.057 |
| COc1ccc(/C=C(/C(=O)NCc2ccc(C(=O)Nc3ccccc3N)cc2)c2cccc(F)c2)cc1OC [Compound 32, N-(2-Aminophenyl)-4-((3-(3,4-dimethoxyphenyl)-2-(3-fluorophenyl)acrylamido)methyl)benzamide] | 1.8 | > 100 | > 100 | 39.9 | 61.2 | 4.8 | 2.1 | > 100 | 48 |  | > 100 | 100 |  |  |  |  |  |  | 1.3 | 0.052 |
| CSc1ccc(/C=C(/C(=O)NCc2ccc(C(=O)NO)cc2)c2cccnc2)cc1 [Compound 55, 4-((2-(Pyridin-3-yl)-3-(4-methylthiophenyl)acrylamido)methyl)-N-hydroxybenzamide] | 1 | > 100 | 39 | 85.7 | 95.1 | 0.02 | 0.2 | 56 | 0.4 | 1.1 | 48 | 6.2 | 1.3 | 2.5 | 4.2 | 7.7 | 10.4 | 11 | 0.8 |  |
| O=C(CCCCCNC(=O)NC(=O)/C(=C/c1ccc(F)c(F)c1)c1ccc(F)cc1)NO [Compound 100] | 40 | 96 | 70 | 77.1 | 96.3 |  | 28 | 84 | 62 | 8.8 | 82 | 46 |  |  |  |  |  |  | 25.6 |  |
| O=C(CCCCCNC(=O)NC(=O)/C(=C/c1ccccc1)c1ccccc1)NO [Compound 101] | 10 | 82 | 45 | 89.5 | 97.1 | 0.07 | 7 | 76 | 35 | 2.9 | 13.2 | 7.6 |  |  |  |  |  |  | 6.6 |  |
